Experimental data as given in ChEMBL document CHEMBL5120948, “Ynamide Electrophile for the Profiling of Ligandable Carboxyl Residues in Live Cells and the Development of New Covalent Inhibitors” (J Med Chem, 2022).
Active and inactive are the calls of the source. No cut-off for these calls is given here.

Key:
NCI-H3255 [1] = assay: cells; assay type: functional, cell-based; settings: Homo sapiens, NCI-H3255, 72 h
Description: Growth inhibition of human NCI-H3255 cells harbouring EGFR L858R mutant incubated for 72 hrs by CCK8 assay

A549 = assay: cells; assay type: functional, cell-based; settings: Homo sapiens, A549, 72 h
Description: Growth inhibition of human A549 cells expressing EGFR incubated for 72 hrs by CCK8 assay

NCI-H3255 [2] = assay: Inhibition of colony formation in human NCI-H3255 cells at 1.1 uM by Giemsa staining based assay; assay type: functional, cell-based
[3] = system: Epidermal growth factor receptor (Homo sapiens), P00533 [L858R]; assay: Binding affinity to EGFR L858R mutant in human NCI-H3255 cells assessed as increase in thermal stability at 0.5 uM incubated for 3 hrs by cellular thermal shift assay; assay type: cell-based
[4] = Growth inhibition of mouse Ba/F3 EGFR cells incubated for 72 hrs by CCK8 assay; assay type: functional, cell-based
[5] = biological target: Epidermal growth factor receptor (Homo sapiens) (UniProt P00533); assay: Inhibition of EGFR in human NCI-H3255 cells assessed as decrease in AKT phosphorylation level at 0.22 to 20 uM; assay type: cell-based; settings: dose 0.22-20 µM
[6] = system: Epidermal growth factor receptor (Homo sapiens), P00533 [L858R]; assay: Binding affinity to EGFR L858R mutant in human NCI-H3255 cells at 10 uM incubated for 8 hrs by pull-down/Western blot analysis; assay type: cell-based
[7] = biological target: Ubiquitin-like modifier-activating enzyme 1 (Homo sapiens) (UniProt P22314); assay: Binding affinity to UBA1 in human HepG2 cells at 10 uM incubated for 8 hrs by pull-down/LC-MS/MS analysis; assay type: cell-based
[8] = biological target: Epidermal growth factor receptor (Homo sapiens) (UniProt P00533); assay: Inhibition of EGFR in human NCI-H3255 cells assessed as decrease in ERK phosphorylation level at 0.22 to 20 uM; assay type: cell-based; settings: dose 0.22-20 µM
[9] = biological target: Glutathione S-transferase 3, mitochondrial (Homo sapiens) (UniProt O14880); assay: Binding affinity to MGST3 in human HepG2 cells at 10 uM incubated for 8 hrs by pull-down/LC-MS/MS analysis; assay type: cell-based
Albumin [10] = biological target: T1, Albumin (Bos taurus, UniProt P02769); assay: Binding affinity to bovine serum albumin assessed as increase in fluorescence intensity at 10 uM measured after 4 hrs by TAMRA-N3 based In-gel fluorescence scanning analysis; settings: cattle
BaF3 = assay: Growth inhibition of mouse BaF3 cells harbouring EGFR L858R mutant incubated for 72 hrs by CCK8 assay; assay type: functional, cell-based; settings: BaF3, 72 h
[11] = biological target: Epidermal growth factor receptor (Homo sapiens) (UniProt P00533); assay: Inhibition of EGFR phosphorylation in human NCI-H3255 cells at 0.22 to 20 uM; assay type: cell-based; settings: dose 0.22-20 µM
NCI-H3255 [12] = assay: Inhibition of colony formation in human NCI-H3255 cells at 10 uM by Giemsa staining based assay; assay type: functional
[13] = biological target: Epidermal growth factor receptor (Homo sapiens, UniProt P00533, L858R); assay: Inhibition of EGFR L858R mutant (unknown origin) using peptide substrate by FRET assay
[14] = biological target: ATP-dependent translocase ABCB1 (Homo sapiens, UniProt P08183); assay: Binding affinity to MDR1 in human HepG2 cells at 10 uM incubated for 8 hrs by pull-down/LC-MS/MS analysis; assay type: cell-based; settings: hepg2, 8 h
[15] = biological target: Leucine-rich PPR motif-containing protein, mitochondrial (Homo sapiens) (UniProt P42704); assay: Binding affinity to LPPRC in human HepG2 cells at 10 uM incubated for 8 hrs by pull-down/LC-MS/MS analysis; assay type: cell-based
[16] = system: Epidermal growth factor receptor (Homo sapiens), P04626+P00533+Q15303+P21860 [L858R]; assay: Binding affinity to EGFR L858R mutant in mouse BaF3 cells at 10 uM incubated for 8 hrs by pull-down/Western blot analysis; assay type: cell-based
Homo sapiens = species on record: Homo sapiens; assay: Binding affinity to beta-amylase (unknown origin) measured after 30 mins by TAMRA-N3 based In-gel fluorescence scanning analysis; settings: dose 5-50 µM
[17] = biological target: Dual specificity mitogen-activated protein kinase kinase 2 (Homo sapiens) (UniProt P36507); assay: Stabilization of MEK2 in human HepG2 cells assessed as increase in thermal stability at 50 uM incubated for 3 hrs by cellular thermal shift assay; assay type: cell-based
HepG2 [18] = assay: Inhibition of ERK phosphorylation in human HepG2 cells at 5 to 40 uM by Western blot analysis; assay type: cell-based; settings: dose 5-40 µM
[19] = system: GTPase KRas (Homo sapiens), P01116 [G12D]; assay: Binding affinity to KRAS G12D mutant (unknown origin) measured after 30 mins by TAMRA-N3 based In-gel fluorescence scanning analysis; settings: dose 5-50 µM
[20] = biological target: Delta(3,5)-Delta(2,4)-dienoyl-CoA isomerase, mitochondrial (Homo sapiens) (UniProt Q13011); assay: Binding affinity to ECH1 in human HepG2 cells at 100 uM incubated for 8 hrs by pull-down/Western blot analysis; assay type: cell-based
[21] = biological target: Aldehyde dehydrogenase 1A1 (Homo sapiens) (UniProt P00352); assay: Binding affinity to ALDH1 in human HepG2 cells at 100 uM incubated for 8 hrs by pull-down/Western blot analysis; assay type: cell-based
[22] = Binding affinity to glutamic acid in aqueous solution measured within 3 hrs by HPLC analysis
[23] = biological target: Aldehyde dehydrogenase, mitochondrial (Homo sapiens) (UniProt P05091); assay: Binding affinity to ALDH2 in human HepG2 cells at 100 uM incubated for 8 hrs by pull-down/Western blot analysis; assay type: cell-based
Catalase (Homo sapiens) = Catalase (Homo sapiens) (UniProt P04040); assay: Binding affinity to catalase (unknown origin) measured after 30 mins by TAMRA-N3 based In-gel fluorescence scanning analysis; settings: dose 5-50 µM
[24] = Stability of the compound in DMSO/H2O solution measured after 7 days by 1H-NMR analysis; assay type: physicochemical; settings: 168 h; time 7 day
[25] = biological target: Dual specificity mitogen-activated protein kinase kinase 2 (Homo sapiens) (UniProt P36507); assay: Binding affinity to MEK2 in human HepG2 cells at 100 uM incubated for 8 hrs by pull-down/Western blot analysis; assay type: cell-based
HepG2 [26] = assay: Binding affinity to G3P in human HepG2 cells at 100 uM incubated for 8 hrs by pull-down/Western blot analysis; assay type: cell-based
Albumin [27] = biological target: T1, Albumin; assay: Binding affinity to bovine serum albumin assessed as increase in fluorescence intensity at 10 uM measured after 4 hrs in presence of N,4-Dimethyl-N-(phenylethynyl)benzenesulfonamide by TAMRA-N3 based In-gel fluorescence scanning analysis; settings: cattle
Albumin [28] = biological target: T1, Albumin; assay: Binding affinity to bovine serum albumin assessed as increase in fluorescence intensity at 5 uM measured after 30 mins by TAMRA-N3 based In-gel fluorescence scanning analysis; settings: cattle, 0.5 h

T1 sequence (P02769 whole entry): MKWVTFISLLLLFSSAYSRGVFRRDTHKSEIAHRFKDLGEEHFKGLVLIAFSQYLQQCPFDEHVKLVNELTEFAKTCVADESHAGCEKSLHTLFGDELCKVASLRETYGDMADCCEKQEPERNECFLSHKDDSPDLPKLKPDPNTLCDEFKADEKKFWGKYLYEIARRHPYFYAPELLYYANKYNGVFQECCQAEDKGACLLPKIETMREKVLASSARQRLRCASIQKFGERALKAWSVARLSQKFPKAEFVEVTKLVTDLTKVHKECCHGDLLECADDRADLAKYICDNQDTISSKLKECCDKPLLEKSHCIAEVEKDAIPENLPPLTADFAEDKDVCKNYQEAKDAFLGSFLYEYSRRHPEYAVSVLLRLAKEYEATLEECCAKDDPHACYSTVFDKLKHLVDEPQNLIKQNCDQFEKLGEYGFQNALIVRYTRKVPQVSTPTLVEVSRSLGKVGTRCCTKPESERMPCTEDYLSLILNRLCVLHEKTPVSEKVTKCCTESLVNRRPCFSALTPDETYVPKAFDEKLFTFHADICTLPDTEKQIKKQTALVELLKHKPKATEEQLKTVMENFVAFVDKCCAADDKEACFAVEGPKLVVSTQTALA
Dual specificity mitogen-activated protein kinase kinase 2 (Homo sapiens), sequence (P36507 whole entry): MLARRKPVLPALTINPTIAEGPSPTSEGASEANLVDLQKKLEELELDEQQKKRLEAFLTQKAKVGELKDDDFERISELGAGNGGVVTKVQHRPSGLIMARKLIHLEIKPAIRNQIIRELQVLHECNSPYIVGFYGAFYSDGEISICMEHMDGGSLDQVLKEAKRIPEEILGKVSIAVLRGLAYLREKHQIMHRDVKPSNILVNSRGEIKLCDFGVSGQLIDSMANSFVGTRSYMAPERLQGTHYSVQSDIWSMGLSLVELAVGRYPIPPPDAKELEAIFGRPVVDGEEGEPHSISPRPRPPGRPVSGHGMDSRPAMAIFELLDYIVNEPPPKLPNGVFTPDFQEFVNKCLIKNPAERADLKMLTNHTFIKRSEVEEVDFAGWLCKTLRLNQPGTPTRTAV
Glutathione S-transferase 3, mitochondrial (Homo sapiens), sequence (O14880 whole entry): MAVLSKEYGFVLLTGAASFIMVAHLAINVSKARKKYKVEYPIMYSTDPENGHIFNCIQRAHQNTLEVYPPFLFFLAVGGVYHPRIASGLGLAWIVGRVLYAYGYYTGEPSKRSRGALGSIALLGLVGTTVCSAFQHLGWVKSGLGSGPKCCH
Catalase (Homo sapiens), sequence (P04040 whole entry): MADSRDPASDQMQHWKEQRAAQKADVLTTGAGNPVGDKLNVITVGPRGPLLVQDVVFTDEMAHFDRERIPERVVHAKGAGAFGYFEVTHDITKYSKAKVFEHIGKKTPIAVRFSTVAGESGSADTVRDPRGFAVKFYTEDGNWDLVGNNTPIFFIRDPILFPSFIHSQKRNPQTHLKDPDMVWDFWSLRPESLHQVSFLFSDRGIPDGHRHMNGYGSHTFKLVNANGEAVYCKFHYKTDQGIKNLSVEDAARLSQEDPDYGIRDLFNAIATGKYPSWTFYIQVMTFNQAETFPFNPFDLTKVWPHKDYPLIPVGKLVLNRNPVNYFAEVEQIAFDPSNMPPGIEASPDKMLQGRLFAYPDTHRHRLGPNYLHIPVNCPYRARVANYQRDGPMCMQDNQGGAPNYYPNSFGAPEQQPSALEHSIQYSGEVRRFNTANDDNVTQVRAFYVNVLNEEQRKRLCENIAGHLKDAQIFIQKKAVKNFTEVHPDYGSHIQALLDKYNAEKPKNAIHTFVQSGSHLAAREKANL
Aldehyde dehydrogenase, mitochondrial (Homo sapiens), sequence (P05091 whole entry): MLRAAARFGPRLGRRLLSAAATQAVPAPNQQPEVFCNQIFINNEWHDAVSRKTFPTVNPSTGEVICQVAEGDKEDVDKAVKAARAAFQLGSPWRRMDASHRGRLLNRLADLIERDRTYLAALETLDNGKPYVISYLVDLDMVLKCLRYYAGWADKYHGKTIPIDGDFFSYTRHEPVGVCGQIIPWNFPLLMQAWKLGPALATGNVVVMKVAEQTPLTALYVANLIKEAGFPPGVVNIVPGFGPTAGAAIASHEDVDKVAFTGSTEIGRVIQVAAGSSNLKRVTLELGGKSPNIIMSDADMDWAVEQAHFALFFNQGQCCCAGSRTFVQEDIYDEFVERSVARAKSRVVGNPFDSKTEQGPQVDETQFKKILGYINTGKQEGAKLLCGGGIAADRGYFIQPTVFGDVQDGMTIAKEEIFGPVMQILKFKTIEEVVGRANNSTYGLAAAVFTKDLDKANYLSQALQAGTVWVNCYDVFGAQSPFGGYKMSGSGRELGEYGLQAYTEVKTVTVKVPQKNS
Ubiquitin-like modifier-activating enzyme 1 (Homo sapiens), sequence (P22314 whole entry): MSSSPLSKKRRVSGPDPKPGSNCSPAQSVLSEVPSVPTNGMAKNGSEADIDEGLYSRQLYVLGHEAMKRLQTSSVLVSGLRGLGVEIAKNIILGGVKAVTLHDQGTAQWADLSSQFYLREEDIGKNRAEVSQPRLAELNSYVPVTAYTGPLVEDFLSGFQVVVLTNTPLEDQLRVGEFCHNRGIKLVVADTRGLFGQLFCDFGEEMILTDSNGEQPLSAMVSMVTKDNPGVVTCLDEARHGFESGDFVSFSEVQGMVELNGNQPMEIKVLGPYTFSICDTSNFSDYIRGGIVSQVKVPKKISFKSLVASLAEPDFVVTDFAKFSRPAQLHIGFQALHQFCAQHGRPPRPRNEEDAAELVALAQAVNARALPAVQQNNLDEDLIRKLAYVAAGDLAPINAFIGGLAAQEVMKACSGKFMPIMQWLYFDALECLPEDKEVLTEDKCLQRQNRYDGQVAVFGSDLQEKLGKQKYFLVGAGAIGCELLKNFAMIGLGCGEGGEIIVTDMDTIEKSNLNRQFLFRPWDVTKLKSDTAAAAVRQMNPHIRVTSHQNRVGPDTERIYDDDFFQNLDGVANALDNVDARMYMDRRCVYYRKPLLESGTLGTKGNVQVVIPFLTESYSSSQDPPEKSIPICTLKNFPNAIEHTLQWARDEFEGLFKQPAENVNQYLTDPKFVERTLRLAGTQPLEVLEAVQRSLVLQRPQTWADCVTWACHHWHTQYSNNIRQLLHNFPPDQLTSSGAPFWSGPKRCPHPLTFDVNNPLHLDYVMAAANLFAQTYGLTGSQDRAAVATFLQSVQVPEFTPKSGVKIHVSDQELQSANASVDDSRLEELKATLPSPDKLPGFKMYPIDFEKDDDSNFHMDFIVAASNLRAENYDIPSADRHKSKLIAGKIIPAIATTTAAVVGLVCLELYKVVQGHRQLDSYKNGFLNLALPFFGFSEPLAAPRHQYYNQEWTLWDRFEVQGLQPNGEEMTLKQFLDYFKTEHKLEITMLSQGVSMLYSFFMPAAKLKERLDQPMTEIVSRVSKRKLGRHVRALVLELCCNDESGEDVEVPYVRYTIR
Delta(3,5)-Delta(2,4)-dienoyl-CoA isomerase, mitochondrial (Homo sapiens), sequence (Q13011 whole entry): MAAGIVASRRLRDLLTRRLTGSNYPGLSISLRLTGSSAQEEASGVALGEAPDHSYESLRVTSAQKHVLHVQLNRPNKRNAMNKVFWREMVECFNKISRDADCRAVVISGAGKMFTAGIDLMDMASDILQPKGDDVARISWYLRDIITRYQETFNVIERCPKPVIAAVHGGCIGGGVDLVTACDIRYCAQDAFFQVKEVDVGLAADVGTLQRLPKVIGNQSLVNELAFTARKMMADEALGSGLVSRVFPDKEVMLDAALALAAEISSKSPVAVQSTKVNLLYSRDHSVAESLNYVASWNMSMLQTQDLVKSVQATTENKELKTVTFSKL
Aldehyde dehydrogenase 1A1 (Homo sapiens), sequence (P00352 whole entry): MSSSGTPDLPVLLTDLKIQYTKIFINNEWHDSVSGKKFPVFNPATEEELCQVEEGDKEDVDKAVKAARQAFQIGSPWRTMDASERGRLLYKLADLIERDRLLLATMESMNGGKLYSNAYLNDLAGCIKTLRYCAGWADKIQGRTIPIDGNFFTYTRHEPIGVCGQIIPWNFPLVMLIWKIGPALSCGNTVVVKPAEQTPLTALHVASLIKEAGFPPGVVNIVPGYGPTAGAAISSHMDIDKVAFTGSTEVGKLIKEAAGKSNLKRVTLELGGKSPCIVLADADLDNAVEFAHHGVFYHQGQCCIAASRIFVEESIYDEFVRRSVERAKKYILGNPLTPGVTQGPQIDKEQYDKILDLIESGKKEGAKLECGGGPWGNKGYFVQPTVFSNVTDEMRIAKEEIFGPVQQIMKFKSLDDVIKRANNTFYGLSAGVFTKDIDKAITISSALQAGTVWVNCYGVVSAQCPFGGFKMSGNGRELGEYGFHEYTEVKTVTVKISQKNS
GTPase KRas (Homo sapiens), P01116 [G12D], sequence (P01116 whole entry G12D, looked up): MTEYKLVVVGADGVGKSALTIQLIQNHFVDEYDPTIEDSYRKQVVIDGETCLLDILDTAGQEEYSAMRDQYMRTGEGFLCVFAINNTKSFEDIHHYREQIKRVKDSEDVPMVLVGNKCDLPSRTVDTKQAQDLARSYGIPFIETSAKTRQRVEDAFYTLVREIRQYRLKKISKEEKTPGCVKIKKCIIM

C#Cc1cccc(Oc2ncnc3ccc(OCc4ccc(S(=O)(=O)NC)cc4)cc23)c1 gave an IC50 (NCI-H3255 [1]) of 7.8 µM and an IC50 (A549) greater than 50 µM.

In the case of C#Cc1cccc(Oc2ncnc3ccc(OCc4ccc(S(=O)(=O)N(C)C#C)cc4)cc23)c1, the inhibition (NCI-H3255 [2]) is reported as “Active”, the Activity [3] is reported as “Active” and the IC50 [4] is reported as 6.48 µM. The inhibition [5] was “Active”, the Activity [6] was “Active” and the Activity [7] was “Active”. The inhibition [8] was “Active”, the Activity [9] was “Active” and the Activity (Albumin [10]) was “Active”. The IC50 (BaF3) was 1.71 µM, the IC50 (NCI-H3255 [1]) was 1.89 µM and the IC50 (A549) was 7.61 µM. For the same molecule, the inhibition [11] was “Active”, the inhibition at 10 µM (NCI-H3255 [12]) was 100% and the IC50 [13] was 5.67 µM. The Activity [14] was “Active”, the Activity [15] was “Active” and the Activity [16] was “Active”.

In the case of C#Cc1ccc(OCc2ccc(S(=O)(=O)N(C)C#C)cc2)cc1, the Activity (Albumin [10]) is reported as “Active”.

With C#Cc1ccc(S(=O)(=O)N(C)C#C)cc1 the Activity (Homo sapiens) was “Active”, the Activity [17] was “Active” and the inhibition (HepG2 [18]) was “Active”. The Activity [19] was “Active”, the Activity (Albumin [10]) was “Active” and the Activity [20] was “Active”. The Activity [21] was “Active”, the Activity [22] was “Active” and the Activity [23] was “Active”. The Activity (Catalase (Homo sapiens)) was “Active”, the Stability [24] was “Stable” and the Activity [25] was “Active”. The Activity (HepG2 [26]) was “Active”, the Activity (Albumin [27]) was “Active” and the Activity (Albumin [28]) was “Active”.
